Test results published in patent US12144792B2, “Therapeutic agents for neurodegenerative diseases” (priority 2016, dated 2024).

Assays:
Type in all cases: in vivo, human
[1] = system: patients with amyotrophic lateral sclerosis (ALS); test: Case studies, medical examination; settings: Ex. 7 Patient 1, ALS; before acetyl-DL-leucine
Description: The results were documented by video.

[2] = system: patient with Lewy Body dementia; test: Case study, clinical evaluation; settings: Ex. 17, Lewy Body dementia; Levodopa 100 mg 4× daily and Quetiapin 25 mg at night together
Experimental: The patient started taking acetyl-leucine (3 g/day for one week; 5 g/day thereafter) and was evaluated after four weeks. […] Medication was reduced to 3 g/day, and the patient was instructed to stop medication about two weeks later.

[3] = system: patient with frontotemporal dementia with parkinsonism; test: Case study, clinical examination; settings: Ex. 9, frontotemporal dementia with parkinsonism; L-Dopa and Ropinirol together
Description: After approximately one month of acetyl-leucine treatment, medication was stopped and the patient was re-examined 13 days later.

[4] = system: patient with corticobasal syndrome; test: Case study, clinical examination; settings: Ex. 10, corticobasal syndrome
Experimental: Gait analysis was performed before treatment commenced. After 20 days of acetyl-leucine treatment, the patient was re-examined. […] After 8 weeks of acetyl-leucine treatment, medication was stopped and the patient was re-examined 6 days later.

[5] = system: patients with progressive supranuclear palsy; test: Case studies, clinical examination
Experimental: After 27 days of acetyl-leucine treatment, medication was stopped and the patient was re-examined 60 days later. […] Gait analysis was performed before treatment commenced. After 17 days of treatment, medication was stopped and the patient was re-examined 4 days later. […] Gait analysis was performed before treatment commenced. After three weeks of treatment, medication was stopped and the patient was re-examined.

[6] = system: patients with multiple system atrophy Parkinson type (MSA-P); test: Case studies, clinical examination
Description: Medication was stopped. […] The patient evaluated after one month on acetyl-DL-leucine. […] Episodes of mental confusion completely disappeared. The patient's cognitive structure seemed much clearer and straighter. […] The patient's spouse supported continuing the medication.

[7] = system: patients with downbeat nystagmus; test: Case studies, clinical examination (visual acuity, posturography)
Description: The patient was diagnosed with downbeat nystagmus: the patient was severely impaired by blurred vision (oscillopsia) due to the nystagmus, and experienced difficulties while reading and writing. The patient's visual acuity was: right 0.75, left 0.67, binocular 0.83, and the downbeat nystagmus was documented by video-oculography. […] […] […] The patient was able to suppress the nystagmus by visual fixation. In addition, the patient's spatial orientation was improved.

Nc1nc2ccc(OC(F)(F)F)cc2s1 [Riluzol]
clinical symptomatology [1]: clinical symptomatology remained unchanged

OCCOCCN1CCN(C2=Nc3ccccc3Sc3ccccc32)CC1 [Quetiapin]
response to treatment [2]: improved the symptomatology

CCCN(CCC)CCc1cccc2c1CC(=O)N2 [Ropinirol]
response to treatment [3]: little improvement

N[C@@H](Cc1ccc(O)c(O)c1)C(=O)O [L-Dopa]
response to treatment [4]: no improvement | response to treatment ([5]; Ex. 11 Patient 1, progressive supranuclear palsy): little improvement | response to treatment ([5]; Ex. 11 Patient 2, PSP): no levodopa response | response to treatment ([5]; Ex. 11 Patient 3, PSP): no levodopa response | response to treatment ([5]; Ex. 11 Patient 4, PSP): slight levodopa response | response to treatment ([6]; Ex. 13 Patient 1, MSA-P, 100/25 mg 3× daily): discreet Levodopa response | tolerability ([6]; Ex. 13 Patient 3, MSA-P): suspended due to side effects | response to treatment [2]: improved the symptomatology | response to treatment [3]: little improvement

Nc1ccncc1 [4-aminopyridine]
response to treatment ([7]; Ex. 12 Patient 1, downbeat nystagmus, 10 mg twice daily for four weeks): did not give rise to any benefit | response to treatment ([7]; Ex. 12 Patient 2, downbeat nystagmus): did not benefit
